Measurements published in PubChem BioAssay AID256 (DTP/NCI, 2004).
Toxic doses and inconclusive results are not listed. How the source made its calls: active means survival T/C of 150% or more; inactive means T/C below 125% in these data.

Tested on: CD2F1 mice, L1210 leukemia ip, survival T/C
Test: NCI In Vivo Anticancer Drug Screen. Data for tumor model L1210 Leukemia (intraperitoneal) in CD2F1 (CDF1) mice
Conditions: endpoint: mean survival time, higher = longer survival
In short: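 Mice carrying a transplanted tumor received test compound or vehicle alone. The value is the measurement in the treated group divided by that in the vehicle-treated control group.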

[1] = dose: 100.0 mg/kg/injection, schedule: Q04DX003 (ip), vehicle: saline sonified
[2] = dose: 200.0 mg/kg/injection, schedule: Q04DX003 (ip), vehicle: saline sonified
[3] = dose: 50.0 mg/kg/injection, schedule: Q01DX009 (ip), vehicle: saline with Tween-80
[4] = dose: 100.0 mg/kg/injection, schedule: Q01DX009 (ip), vehicle: saline with Tween-80
[5] = dose: 200.0 mg/kg/injection, schedule: Q01DX009 (ip), vehicle: saline with Tween-80
[6] = dose: 6.25 mg/kg/injection, schedule: Q01DX009 (ip), vehicle: saline sonified
[7] = dose: 12.5 mg/kg/injection, schedule: Q01DX009 (ip), vehicle: saline sonified
[8] = dose: 25.0 mg/kg/injection, schedule: Q01DX009 (ip), vehicle: saline sonified
[9] = dose: 100.0 mg/kg/injection, schedule: Q04DX003 (ip), vehicle: saline with Tween-80
[10] = dose: 200.0 mg/kg/injection, schedule: Q04DX003 (ip), vehicle: saline with Tween-80
[11] = dose: 400.0 mg/kg/injection, schedule: Q04DX003 (ip), vehicle: saline with Tween-80
[12] = dose: 400.0 mg/kg/injection, schedule: Q01DX009 (ip), vehicle: saline with Tween-80
[13] = dose: 100.0 mg/kg/injection, schedule: Q01DX001 (ip), vehicle: saline with Tween-80
[14] = dose: 200.0 mg/kg/injection, schedule: Q01DX001 (ip), vehicle: saline with Tween-80
[15] = dose: 400.0 mg/kg/injection, schedule: Q01DX001 (ip), vehicle: saline with Tween-80
[16] = dose: 100.0 mg/kg/injection, schedule: Q04DX003 (ip), vehicle: saline
[17] = dose: 100.0 mg/kg/injection, schedule: Q01DX009 (ip), vehicle: saline
[18] = dose: 25.0 mg/kg/injection, schedule: Q01DX009 (ip), vehicle: saline with Tween-80

Measured: T/C

O=C1c2ccccc2C(=O)N1c1ccc(Cl)cc1
inactive: dose: 100.0 mg/kg/injection, schedule: Q01DX001 (ip), vehicle: Klucel (hydroxypropylcellulose) (HPC) 92 % of control | dose: 200.0 mg/kg/injection, schedule: Q01DX001 (ip), vehicle: Klucel (hydroxypropylcellulose) (HPC) 96 % of control | dose: 400.0 mg/kg/injection, schedule: Q01DX001 (ip), vehicle: Klucel (hydroxypropylcellulose) (HPC) 107 % of control

CC12CCC(=O)C=C1CCCC2O (stereo not drawn)
inactive: [1] 97 % of control | [2] 112 % of control

CC(C)(C)C1=CC(C(C)(C)C)CCC1=O (stereo not drawn)
inactive: dose: 100.0 mg/kg/injection, schedule: Q01DX009 (ip), vehicle: acetone 94 % of control | dose: 200.0 mg/kg/injection, schedule: Q01DX009 (ip), vehicle: acetone 94 % of control

NC(CCC(=O)Nc1cccc2ccccc12)C(=O)O (stereo not drawn)
inactive: [3] 98 % of control | [4] 107 % of control | [5] 104 % of control

CCOC(=O)C[P+](c1ccccc1)(c1ccccc1)c1ccccc1
inactive: dose: 3.13 mg/kg/injection, schedule: Q01DX009 (ip), vehicle: saline sonified 93 % of control | dose: 3.13 mg/kg/injection, schedule: Q04DX003 (ip), vehicle: saline with Tween-80 98 % of control | [6] 94 % of control | dose: 6.25 mg/kg/injection, schedule: Q04DX003 (ip), vehicle: saline with Tween-80 98 % of control | [7] 93 % of control | dose: 12.5 mg/kg/injection, schedule: Q04DX003 (ip), vehicle: saline with Tween-80 98 % of control | [8] 93 % of control | dose: 25.0 mg/kg/injection, schedule: Q04DX003 (ip), vehicle: saline with Tween-80 95 % of control

O=[N+]([O-])c1ccc(N/N=C/c2ccnc3ccccc23)cc1
inactive: dose: 100.0 mg/kg/injection, schedule: Q04DX003 (ip), vehicle: Klucel (hydroxypropylcellulose) (HPC) 89 % of control | dose: 200.0 mg/kg/injection, schedule: Q04DX003 (ip), vehicle: Klucel (hydroxypropylcellulose) (HPC) 91 % of control | dose: 400.0 mg/kg/injection, schedule: Q04DX003 (ip), vehicle: Klucel (hydroxypropylcellulose) (HPC) 97 % of control

CC(CO)CC/C(=N\O)C(C)C1/C(=N/O)CC2C=C3CC(O)CCC3(C)CC21C (stereo not drawn)
inactive: [9] 92 % of control | [10] 92 % of control | [11] 87 % of control

Clc1ccc2ccc(Cl)cc2c1
inactive: [4] 94 % of control | [5] 96 % of control | [12] 105 % of control

CC1(c2ccc(O)cc2)CCC(C(C)(C)c2ccc(O)cc2)CC1 (stereo not drawn)
inactive: [9] 92 % of control | [10] 90 % of control | [11] 90 % of control

S=C(Nc1ccccc1)Nc1ccccn1
inactive: [13] 97 % of control | [14] 105 % of control | [15] 109 % of control

N#Cc1cccc(N)c1
inactive: [4] 106 % of control | [5] 94 % of control | [12] 98 % of control

[Cl][Ga]([Cl])[Cl]
inactive: dose: 50.0 mg/kg/injection, schedule: Q04DX003 (ip), vehicle: saline 96 % of control | dose: 100.0 mg/kg/injection, schedule: Q01DX001 (ip), vehicle: saline 92 % of control | [16] 108 % of control | dose: 200.0 mg/kg/injection, schedule: Q01DX001 (ip), vehicle: saline 95 % of control

Cc1nocc1CC1=C2CCCC(=O)C2(C)CCC1=O (stereo not drawn)
inactive: dose: 100.0 mg/kg/injection, schedule: Q01DX001 (ip), vehicle: alcohol 94 % of control | dose: 200.0 mg/kg/injection, schedule: Q01DX001 (ip), vehicle: alcohol 92 % of control | dose: 400.0 mg/kg/injection, schedule: Q01DX001 (ip), vehicle: alcohol 95 % of control

Clc1nc(Cl)c(Nc2ccn[nH]2)nc1Cl
inactive: [1] 100 % of control | [2] 98 % of control | dose: 400.0 mg/kg/injection, schedule: Q04DX003 (ip), vehicle: saline sonified 95 % of control

COC(=O)C12CCC(C)(C)CC1C1=CCC3C4(C)CCC(OC(C)=O)CC4CCC3(C)C1(C)CC2 (stereo not drawn)
inactive: [13] 93 % of control | [4] 100 % of control | [14] 92 % of control | [5] 100 % of control | [15] 97 % of control | [12] 109 % of control

NC(=O)c1c(Cl)n(C2OC(CO)C(O)C2O)c2ncnc(N)c12 (stereo not drawn)
inactive: dose: 1.0 mg/kg/injection, schedule: Q01DX005 (ip), vehicle: distilled water + Tween-80 103 % of control | dose: 2.0 mg/kg/injection, schedule: Q01DX005 (ip), vehicle: distilled water + Tween-80 101 % of control | dose: 4.0 mg/kg/injection, schedule: Q01DX005 (ip), vehicle: distilled water + Tween-80 106 % of control | dose: 8.0 mg/kg/injection, schedule: Q01DX005 (ip), vehicle: distilled water + Tween-80 103 % of control | dose: 16.0 mg/kg/injection, schedule: Q01DX005 (ip), vehicle: distilled water + Tween-80 114 % of control | dose: 32.0 mg/kg/injection, schedule: Q01DX005 (ip), vehicle: distilled water + Tween-80 109 % of control

COc1ccc2c(C(=O)CCC(=O)O)cccc2c1
inactive: [17] 94 % of control | dose: 200.0 mg/kg/injection, schedule: Q01DX009 (ip), vehicle: saline 90 % of control | dose: 400.0 mg/kg/injection, schedule: Q01DX009 (ip), vehicle: saline 100 % of control

COc1ccc(C2N(C)CCCN2C)c(OC)c1
inactive: [6] 103 % of control | dose: 6.25 mg/kg/injection, schedule: Q04DX003 (ip), vehicle: saline sonified 101 % of control | [7] 103 % of control | dose: 12.5 mg/kg/injection, schedule: Q04DX003 (ip), vehicle: saline sonified 108 % of control | [8] 98 % of control | dose: 25.0 mg/kg/injection, schedule: Q04DX003 (ip), vehicle: saline sonified 100 % of control

COC(=O)/C=C/N(Cc1ccccc1)Cc1ccccc1
inactive: [9] 98 % of control | [10] 96 % of control | [11] 94 % of control

ClCCCC1(CCCCl)OCCO1
inactive: dose: 100.0 mg/kg/injection, schedule: Q04DX002 (ip), vehicle: saline with Tween-80 101 % of control | dose: 200.0 mg/kg/injection, schedule: Q04DX002 (ip), vehicle: saline with Tween-80 97 % of control | dose: 400.0 mg/kg/injection, schedule: Q04DX002 (ip), vehicle: saline with Tween-80 104 % of control

COc1ccccc1NC(=O)Oc1ccc(OCc2ccccc2)cc1
inactive: [4] 94 % of control | [9] 108 % of control | [5] 88 % of control | [10] 100 % of control | [12] 87 % of control | [11] 95 % of control

O=C(Nc1ccc(Cl)cc1Cl)SCCO
inactive: [4] 108 % of control | [5] 101 % of control | [12] 95 % of control

Cc1ccc(CCCC(=O)O)c(C)c1
inactive: [9] 104 % of control | [10] 93 % of control | [11] 98 % of control

Nc1ccc2c(c1)C=CCS2
inactive: [4] 102 % of control | [9] 104 % of control | [5] 98 % of control | [10] 98 % of control | [12] 90 % of control | [11] 104 % of control

Cc1ccccc1SCCC(=O)O
inactive: dose: 12.5 mg/kg/injection, schedule: Q01DX009 (ip), vehicle: saline with Tween-80 101 % of control | [18] 102 % of control | [3] 101 % of control | [4] 97 % of control

CNc1ccc(Br)c2c1C(=O)c1ccccc1C2=O
inactive: [9] 97 % of control | [10] 101 % of control | [11] 95 % of control

N#CCCCN1CCCCCC1
inactive: [9] 97 % of control

CCOC(=O)c1ccc(Nc2nnc(-c3c(OC)cc(OC)cc3OC)s2)cc1
inactive: [18] 88 % of control | [3] 88 % of control | [4] 89 % of control | [5] 88 % of control | [12] 88 % of control

N=C(N)SCCSC(=N)N
inactive: dose: 25.0 mg/kg/injection, schedule: Q01DX009 (ip), vehicle: saline 92 % of control | dose: 50.0 mg/kg/injection, schedule: Q01DX009 (ip), vehicle: saline 94 % of control | [17] 94 % of control | [16] 100 % of control | dose: 200.0 mg/kg/injection, schedule: Q04DX003 (ip), vehicle: saline 105 % of control

CC(=O)Oc1ccc(CC2N=C(c3ccccc3)OC2=O)cc1 (stereo not drawn)
inactive: [3] 87 % of control | [4] 91 % of control

CC(=O)C(=O)C(C)=O
inactive: [9] 94 % of control | [10] 91 % of control | [11] 105 % of control

CCOC/C=C/C(C)(C)C
inactive: [3] 102 % of control | [4] 102 % of control | [5] 97 % of control

O=[N+]([O-])c1ccc(N=C(Cl)c2ccccc2)cc1
inactive: [4] 101 % of control | [5] 104 % of control | [12] 104 % of control

O=c1[nH]cc(Cc2cccc3ccccc23)c(=O)[nH]1
inactive: [13] 92 % of control | [14] 94 % of control | [15] 86 % of control
